# Measured values taken from PubChem BioAssay (NCI).
# Values joined by “and” are separate entries in the source; they are usually repeats but may differ in a detail not shown here. Equal entries are not always repeated.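 48-hour exposure; five concentrations; linearly interpolated endpoints. GI50 is the concentration that inhibits growth by half. TGI: concentration producing complete growth inhibition.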
# What was measured:
# Experiment in all cases: inhibition of tumour cell growth, NCI panel, 48 h
# [1] = test system: SK-MEL-2 melanoma
# [2] = test system: CAKI-1 renal
# [3] = test system: SF-539 CNS
# [4] = test system: MCF7 breast
# [5] = test system: NCI-H460 lung
# [6] = test system: CCRF-CEM leukemia
# [7] = test system: HL-60(TB) leukemia
# [8] = test system: 786-0 renal
# [9] = test system: SK-OV-3 ovarian
# [10] = test system: TK-10 renal
Structure (SMILES),GI50 [1] [µM],TGI [1],GI50 [2] [µM],TGI [2] [µM],GI50 [3] [µM],TGI [3],GI50 [4] [µM],TGI [4],GI50 [5] [µM],TGI [5],TGI [6] [µM],GI50 [7] [µM],TGI [7],GI50 [8] [µM],TGI [8],GI50 [9] [µM],TGI [9],GI50 [10] [µM],TGI [10],GI50 [6] [µM]
CC(C)(C)OC(=O)NCCCCCCCCn1c2c(c3ccccc3c1=O)C(=O)c1ccccc1-2,5.61,19.9 µM,11.8,> 36.5,9.64,29.6 µM,> 50,> 50 µM,> 50,> 50 µM,> 11.4,> 50,> 50 µM,10.8,27.5 µM,14.4,> 39.4 µM,11.7,30.7 µM,–
Nc1ccc(C#Cc2cncnc2Nc2ccc(OCc3cccc(F)c3)c(Cl)c2)cc1,> 16.4,> 25 µM,5.87,> 25,> 15.8,> 25 µM,11.9,> 25 µM,15.7,> 25 µM,> 25,5.68,> 25 µM,17.4,> 25 µM,8.88,> 25 µM,3.58,> 25 µM,5.72
CCc1cccc(CC)c1NC(=S)NC(=O)c1ccc(Br)cc1,–,48.9 µM,–,> 96,–,> 100 µM,–,71.7 µM,–,41.6 µM,> 31.6,–,26.3 µM,–,> 100 µM,–,> 100 µM,–,> 64.1 µM,–
C#CCN1CCN(C(=S)N/N=C(\C)c2ccccn2)CC1,2.4,5.41 µM and 4.64 µM,0.785,12.8,–,5.78 µM and 4.56 µM,< 0.001,2.73 µM and 2.9 µM,–,4.17 µM and 2.75 µM,2.14,0.00195,0.00497 µM and 0.0116 µM,0.243,4.62 µM and 4.87 µM,1.57,2.91 µM and 5.09 µM,1.58,5.5 µM and 6.36 µM,–
COC(=O)c1c2c(c(C)[n+]([O-])c1C)C(=O)C=C(NCc1cccc(OC)c1)C2=O,1.15,2.78 µM,0.696,2.22,0.879,2.11 µM,0.258,0.826 µM,–,–,–,0.317,1.15 µM,1.88,4.85 µM,–,–,–,–,0.471
C=C(CN1CCN(c2cccc(C(F)(F)F)c2)CC1)c1ccc(C(=O)Nc2ccccc2N)cc1,3.44,32.2 µM,0.625,> 17.6,0.543,2.82 µM,1.25,> 27.5 µM,1.56,> 24.8 µM,> 50,0.118,0.856 µM,1.1,8.96 µM,–,–,0.807,5.31 µM,0.335
Cc1cc(O)c2c(c1)C(=O)c1cc(O)cc(O)c1C2=O,–,> 74.3 µM,–,52.9,54.2,> 100 µM,27.7,> 100 µM,–,> 78.4 µM,> 100,–,76.5 µM,25.5,84.6 µM,–,> 91.9 µM,–,> 81.1 µM,–
O=C(O)CCC1COc2ccccc2O1 (stereo unspecified),–,> 10 µM,–,> 10,–,> 10 µM,–,> 10 µM,–,> 10 µM,> 10,–,> 10 µM,–,> 10 µM,–,> 10 µM,–,> 10 µM,–
Nc1nc2c(c3ncccc13)C(c1cccc(Cl)c1)Cc1ncccc1-2 (stereo unspecified),1.84,15.4 µM,3.04,51.8,1.96,7.25 µM,0.514,17.6 µM,3.03,22.6 µM,48.6,1.21,10.3 µM,3.99,26.5 µM,2.69,23.2 µM,8.11,65.7 µM,2.12
O=C1/C(=C/c2ccccc2)SC(=Nc2ccccc2)N1Nc1ccccc1,14.9,43.7 µM,13.7,> 100,27.2,99.5 µM,7.91,83.5 µM,15.9,57.3 µM,> 100,10.4,68.9 µM,6.57,> 100 µM,24.4,> 100 µM,36.5,> 100 µM,4.07
C/C=C(\C)C(=O)O[C@@H]1C(O)[C@H]2OC(COC(=O)CCC(=O)CCCCCC[C@H](CCCCC)O[C@@H]3OC(C)[C@H](OC(C)=O)C(O)[C@H]3O2)[C@H]1OC(=O)/C=C/c1ccccc1 (stereo partly specified),0.322,4.27 µM,–,–,< 0.01,1.96 µM,< 0.01,17.3 µM,< 0.01,> 60.9 µM,> 100,0.127,18.9 µM,0.028,7.61 µM,0.0419,13.3 µM,0.0235,5.98 µM,0.408
O=C(Nc1cnn2ccc(N3CCC[C@@H]3c3cc(F)ccc3F)nc12)N1CC[C@H](O)C1,> 100,> 100 µM,> 100,> 100,> 100,> 100 µM,> 100,> 100 µM,> 100,> 100 µM,–,> 100,> 100 µM,> 100,> 100 µM,> 100,> 100 µM,> 100,> 100 µM,–
CN1CCN(c2ccc(-c3cnc4c(-c5csc6ccccc56)cnn4c3)cc2)CC1,> 15,> 15 µM,11.3,> 15,2.36,4.62 µM,2.58,> 15 µM,2.14,4.41 µM,> 15,5.89,> 15 µM,4.35,12.3 µM,> 15,> 15 µM,8.37,> 15 µM,4.43
